Assay [1] can be described thus: inhibitors of HIV Env-driven cell fusion, dose response, cherry-pick (AID 652057). It counts as functional, cell-based.
Assay [2] is described as follows: off-target signal loss in HeLa-CEM21 co-culture – HeLa F-luc CTL cells, cherry-picked, counter-screen for HIV-1 Env fusion inhibitor project, dose response (AID 652040).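 Further: potency for signal decrease marking cytotoxic or nonspecific inhibition.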 It counts as functional, cell-based. Background: The purpose of a counterscreen is to sort out artefacts and off-target activity.
Assay [3] is described as follows: cytotoxicity in HEK-293T cells, dose response, cytotoxicity control for TCR NF-kB inhibitor project, luminescence, T-cell screen hits (AID 489026).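 Further: cells exposed to compound about 14 hours before the viability readout.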 It counts as functional, cell-based.
Another assay deals with Protein Wnt-3a (Mus musculus, UniProt P27467). Briefly: Wnt3a-driven reporter signaling inhibition, dose response, selectivity assay for Gli-SUFU antagonist project, Wnt-LIGHT cells, luminescence (AID 651570).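 Further: Wnt-LIGHT reporter cells stimulated with conditioned medium from Wnt3a-producing cells.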 It counts as functional. As to conditions: read-out: IC50_Mean.
Protein Wnt-3a, sequence (P27467 whole entry, the tested form may be a part): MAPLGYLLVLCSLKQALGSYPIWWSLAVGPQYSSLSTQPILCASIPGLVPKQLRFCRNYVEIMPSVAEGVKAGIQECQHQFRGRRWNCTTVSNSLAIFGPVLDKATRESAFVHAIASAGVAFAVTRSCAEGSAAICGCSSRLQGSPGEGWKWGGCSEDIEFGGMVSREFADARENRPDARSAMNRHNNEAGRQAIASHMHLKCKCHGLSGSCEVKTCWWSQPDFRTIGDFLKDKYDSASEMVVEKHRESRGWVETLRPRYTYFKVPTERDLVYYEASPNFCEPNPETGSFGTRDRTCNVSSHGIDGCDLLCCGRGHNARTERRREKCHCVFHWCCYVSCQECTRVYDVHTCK
Assay [4] is described as follows: inhibitors of clade B AD8 Env fusion, dose response, cell-based, cherry-pick (AID 652062).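 Further: luciferase signal from cell-cell fusion driven by HIV-1 clade B AD8 Env; potency is for inhibitors of fusion seen as a drop in luminescence.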 It counts as functional.
For a further assay, the system named is HEK293. The assay is described as follows: inhibitors of LMP1-driven NF-kB reporter, dose response, cell-based, HEK293, luciferase, cherry-pick (AID 588343). It counts as functional. As to conditions: Homo sapiens.
A short description of assay [5]: Luminescence Cell-Based Dose Response HTS to Identify Inhibitors of 5'UTR Stem-Loop Driven Prion Protein mRNA Translation in H4 Neuroglioblastoma Cells. [Related pubchem assays: 1827 (Project Summary), 1813 (Primary HTS)]. It counts as functional.
Assay [6] is described as follows: ZM109 Env clade C HIV-1 fusion inhibitors, dose response, HeLa effector, CEM target cells, luciferase, cherry-pick (AID 652058). It counts as functional, cell-based.
For assay [7], the target named is T1, Heat shock factor protein 1 (Mus musculus, UniProt P38532).
T1 sequence (P38532 whole entry): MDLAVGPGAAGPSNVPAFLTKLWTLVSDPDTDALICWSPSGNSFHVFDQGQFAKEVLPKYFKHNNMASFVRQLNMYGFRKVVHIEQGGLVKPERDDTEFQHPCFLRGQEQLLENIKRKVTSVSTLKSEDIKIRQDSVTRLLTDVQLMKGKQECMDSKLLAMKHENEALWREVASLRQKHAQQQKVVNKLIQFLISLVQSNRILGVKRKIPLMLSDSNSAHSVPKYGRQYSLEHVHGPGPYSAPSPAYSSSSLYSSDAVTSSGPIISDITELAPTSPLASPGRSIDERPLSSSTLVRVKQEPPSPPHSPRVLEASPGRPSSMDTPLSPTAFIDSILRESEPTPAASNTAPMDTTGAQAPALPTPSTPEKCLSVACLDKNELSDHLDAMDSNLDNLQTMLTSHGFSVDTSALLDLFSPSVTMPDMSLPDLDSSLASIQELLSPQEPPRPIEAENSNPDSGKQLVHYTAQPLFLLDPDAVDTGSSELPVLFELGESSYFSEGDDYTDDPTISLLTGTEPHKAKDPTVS
The assay is described as follows: inhibition of MG132-induced HSE-luciferase signal, confirmation, cell-based, NIH3T3, luminescence, dose retest (AID 2382).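 Further: NIH3T3 fibroblasts with HSF1-driven luciferase reporter stressed by proteasome inhibitor MG132; luminescence from HSF1-driven luciferase expression after 8 hours of MG132 stress.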 It counts as functional.

Assay [8] in a line: inhibitors of firefly luciferase expression or activity, dose response, H4 neuroglioma cells, luminescence (AID 1990). It counts as functional, cell-based.
Assay [9] is described as follows: inhibitors of SNCA 5'UTR-driven reporter translation, confirmation, H4 neuroglioma cells, luminescence (AID 1988). It counts as functional, cell-based.
Assay [10] has as its target T2, Long-chain-fatty-acid--AMP ligase FadD28 (Mycobacterium tuberculosis, UniProt P9WQ59).
T2 sequence (P9WQ59 whole entry): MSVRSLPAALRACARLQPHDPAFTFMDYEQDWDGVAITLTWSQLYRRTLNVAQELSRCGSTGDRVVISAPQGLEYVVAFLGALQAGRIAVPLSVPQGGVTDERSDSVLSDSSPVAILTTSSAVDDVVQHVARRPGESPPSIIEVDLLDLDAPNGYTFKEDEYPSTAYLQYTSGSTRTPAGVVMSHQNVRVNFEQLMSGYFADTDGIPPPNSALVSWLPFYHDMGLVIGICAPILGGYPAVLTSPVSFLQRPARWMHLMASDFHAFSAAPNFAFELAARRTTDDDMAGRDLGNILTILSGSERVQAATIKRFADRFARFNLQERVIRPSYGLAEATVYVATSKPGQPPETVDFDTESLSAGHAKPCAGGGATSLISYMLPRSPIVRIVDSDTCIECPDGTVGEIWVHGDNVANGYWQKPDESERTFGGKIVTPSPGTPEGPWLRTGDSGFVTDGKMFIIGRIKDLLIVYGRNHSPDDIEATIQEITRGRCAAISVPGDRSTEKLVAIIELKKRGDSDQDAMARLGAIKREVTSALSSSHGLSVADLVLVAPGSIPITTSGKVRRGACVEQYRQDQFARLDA
The assay is described as follows: Fluorescence polarization aasay to screen for inhibitors that compete for the binding of FadD28 to a bisubstrate Measured in Biochemical System Using Plate Reader - 2147-01_Inhibitor_Dose_CherryPick_Activity. It counts as functional, Mycobacterium tuberculosis H37Rv. Background: In fluorescence polarisation assays a small probe gives low polarisation when free and higher when bound to something large.

The next assay deals with Streptococcus. Briefly: Group A Streptococcus viability loss, dose response, counter-screen for streptokinase expression inhibitor project, luminescence, BacTiterGlo (AID 1915).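 Further: potency for reduction of bacterial viability or growth.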 It counts as functional, organism-based.
A further assay has as its target T3, Streptokinase A (Streptococcus pyogenes serotype M1, UniProt P10520).
T3 sequence (P10520 whole entry): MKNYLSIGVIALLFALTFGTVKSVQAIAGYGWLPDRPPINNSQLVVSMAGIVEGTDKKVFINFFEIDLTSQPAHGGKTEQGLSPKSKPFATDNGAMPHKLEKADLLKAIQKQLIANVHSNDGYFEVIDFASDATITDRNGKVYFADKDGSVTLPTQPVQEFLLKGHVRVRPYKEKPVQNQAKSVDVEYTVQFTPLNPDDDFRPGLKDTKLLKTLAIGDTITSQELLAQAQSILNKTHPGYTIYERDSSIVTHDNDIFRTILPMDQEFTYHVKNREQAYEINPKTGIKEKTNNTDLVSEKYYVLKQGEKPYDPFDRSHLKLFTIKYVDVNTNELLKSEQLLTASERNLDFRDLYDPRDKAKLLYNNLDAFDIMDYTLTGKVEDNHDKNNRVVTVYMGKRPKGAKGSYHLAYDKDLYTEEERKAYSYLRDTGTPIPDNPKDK
The assay is described as follows: S. pyogenes streptokinase expression inhibitors, potency, dose response, plasminogen activation absorbance, OD405 (AID 1914).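 Further: secreted streptokinase activity via plasminogen activation per viability signal from cell pellet.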 It counts as functional, Streptococcus pyogenes M1 GAS.

A further assay concerns the target T4, Leucine aminopeptidase (Plasmodium falciparum 3D7, UniProt Q8IL11).
T4 sequence (Q8IL11 whole entry): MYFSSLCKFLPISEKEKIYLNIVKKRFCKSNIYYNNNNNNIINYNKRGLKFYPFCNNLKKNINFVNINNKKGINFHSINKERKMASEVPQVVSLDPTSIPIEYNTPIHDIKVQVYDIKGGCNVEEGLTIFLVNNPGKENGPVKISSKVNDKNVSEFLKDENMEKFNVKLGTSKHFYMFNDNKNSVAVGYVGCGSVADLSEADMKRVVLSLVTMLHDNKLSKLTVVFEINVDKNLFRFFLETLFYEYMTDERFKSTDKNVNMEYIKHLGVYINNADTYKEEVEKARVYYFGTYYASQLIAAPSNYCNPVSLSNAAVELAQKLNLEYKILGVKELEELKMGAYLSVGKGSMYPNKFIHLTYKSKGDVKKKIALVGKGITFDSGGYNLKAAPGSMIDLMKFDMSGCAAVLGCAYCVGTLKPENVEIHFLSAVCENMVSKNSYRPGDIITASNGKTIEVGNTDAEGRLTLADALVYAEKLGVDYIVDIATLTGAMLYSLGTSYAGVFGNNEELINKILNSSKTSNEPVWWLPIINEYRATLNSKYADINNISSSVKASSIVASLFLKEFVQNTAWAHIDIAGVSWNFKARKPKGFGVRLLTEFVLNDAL
Briefly: P. falciparum M17LAP inhibitors, primary screen, biochemical, fluorogenic H-Leu-NHMec substrate, 1536-well (AID 1619). It counts as functional.

For the next assay, the target named is T5, Aminopeptidase N (Plasmodium falciparum FcB1/Columbia, UniProt O96935).
T5 sequence (O96935 whole entry): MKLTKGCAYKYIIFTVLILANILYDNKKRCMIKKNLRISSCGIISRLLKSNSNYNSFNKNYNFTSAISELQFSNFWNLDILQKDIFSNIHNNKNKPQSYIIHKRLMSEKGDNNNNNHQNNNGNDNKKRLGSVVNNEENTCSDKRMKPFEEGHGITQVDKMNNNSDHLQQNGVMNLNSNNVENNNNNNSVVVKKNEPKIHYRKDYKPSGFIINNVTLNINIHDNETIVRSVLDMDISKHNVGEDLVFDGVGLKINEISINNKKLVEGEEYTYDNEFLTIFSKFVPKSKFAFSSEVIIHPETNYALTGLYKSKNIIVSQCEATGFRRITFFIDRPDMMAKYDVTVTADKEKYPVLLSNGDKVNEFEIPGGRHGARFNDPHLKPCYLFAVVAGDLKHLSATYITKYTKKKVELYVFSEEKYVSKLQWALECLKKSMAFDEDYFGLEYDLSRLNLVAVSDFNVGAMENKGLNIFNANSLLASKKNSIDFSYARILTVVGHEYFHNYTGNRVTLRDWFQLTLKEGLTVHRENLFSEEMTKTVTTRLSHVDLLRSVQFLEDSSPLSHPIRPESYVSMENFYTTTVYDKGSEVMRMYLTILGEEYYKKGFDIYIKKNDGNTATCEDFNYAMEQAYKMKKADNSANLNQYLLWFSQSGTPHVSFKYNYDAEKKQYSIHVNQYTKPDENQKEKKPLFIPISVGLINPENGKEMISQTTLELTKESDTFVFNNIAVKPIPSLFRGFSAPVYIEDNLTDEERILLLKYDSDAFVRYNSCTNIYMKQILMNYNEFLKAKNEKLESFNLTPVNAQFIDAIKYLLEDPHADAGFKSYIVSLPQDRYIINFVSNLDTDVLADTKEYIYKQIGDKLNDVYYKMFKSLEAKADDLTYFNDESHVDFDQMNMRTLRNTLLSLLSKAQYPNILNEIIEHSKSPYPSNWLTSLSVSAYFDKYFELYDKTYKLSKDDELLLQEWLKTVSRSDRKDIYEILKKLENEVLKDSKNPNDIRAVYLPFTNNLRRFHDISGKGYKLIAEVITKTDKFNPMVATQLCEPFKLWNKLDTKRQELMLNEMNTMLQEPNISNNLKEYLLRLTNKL
The assay is described as follows: P. falciparum M1AAP inhibitors, biochemical, fluorogenic H-Leu-NHMec substrate, 1536-well (AID 1445). Further details: species or system Plasmodium falciparum 3D7, 3D7.

Assay [11] has as its system Streptococcus sp. 'group A'. Briefly: growth inhibition of control SK(-) GAS strain, dose response, counter-screen for streptokinase expression inhibitor project, luminescence, kanamycin, BacTiterGlo, confirmation (AID 1900). It counts as functional, organism-based.

The source of these data is ChEMBL document CHEMBL1201862, “PubChem BioAssay data set” (2004).

Active and inactive are the calls of the source. A value given as a limit tells only on which side of the number the result lay.

Turning to `Cc1nc2ccccc2c2c1CC(C(C)(Cl)Br)O2` (stereo unspecified), the AC50 – broadly, the midpoint of the concentration-response curve, whichever way the signal moves – in assay [1] was 27.6 µM (active); in assay [2], > 70 µM (inactive); in [4] it was 1.8 µM (active). The IC50 is > 80 µM (inactive) in [3] and 3.82 µM (active) at Protein Wnt-3a.
As for `NC(=O)c1sc2nc3c(c(-c4cccs4)c2c1N)CCCCC3`, the AC50 in the assay with HEK293 was 2.27 µM (active); in assay [6] it was < 260 nM (active); in assay [1] it was 0.743 µM (active); in assay [2], 1.67 µM (active); in assay [4], 1.43 µM (active). The EC50 (commonly the concentration that produces a half-maximal response) in [5] was 9.4 µM (active); in assay [7] it was 285 nM (active); in [8] it was 16.5 µM (active); in assay [9], 11.1 µM (active).
As for `Cc1n[nH]c(C)c1S(=O)(=O)N(CC(=O)NC1CCCC1)c1ccc(C(C)C)cc1`, the AC50 in assay [6] is 2380 nM (active); in assay [1], 3.91 µM (active); in assay [2] it was 6.27 µM (active); in assay [4], 3.53 µM (active).
The matching figures for `CCCCn1c(N)c(N(CC(C)C)C(=O)c2ccc(S(=O)(=O)N(CC)c3ccccc3)cc2)c(=O)[nH]c1=O`: < 260 nM (active), 0.402 µM (active), 0.877 µM (active) and 2.78 µM (active).
`COC(=O)[C@@]1(C)[C@H]2C(=O)N(Cc3ccccc3)C(=O)[C@H]2[C@H]2CN=C(SCc3ccc(Cl)cc3)N21`: the AC50 in the assay on HEK293 is 4.73 µM (active); in [6] it was 891 nM (active); in [1], 0.876 µM (active); in [2] it was 1.04 µM (active); in assay [4] it was 0.796 µM (active).
On to `CC(=O)NS(=O)(=O)c1ccc(/N=c2\ssc3c2-c2ccc(C)cc2NC3(C)C)cc1`, for which the AC50 in assay [10] was > 100 µM (inactive). Further, the EC50 is 12.1 µM (active) in the assay with Streptococcus, > 150 µM (not active) at Streptokinase A and 2.31 µM (active) in assay [11]. The IC50 at Leucine aminopeptidase was 2.6 µM (active); on Aminopeptidase N, 89.3 µM (active).
Consider `COc1cccc(/C=N/NC(=O)CC2C(=O)NN=C2C)c1O` (stereo unspecified), for which the results for the AC50 in assay [1] and in assay [2] were 49.9 µM (active) and > 70 µM (inactive), respectively. In addition, the IC50 at Leucine aminopeptidase was 92.1 µM (active).
